{
  "source": "patent US5567707A",
  "about": "“Acronycine analogues” (Adir et Compagnie, priority 1994, dated 1996)",
  "key": {"[1]": {"tested_on": "murine leukaemia L1210", "assay": "Cytotoxicity for L1210 cells in culture (Microculture Tetrazolium Assay)", "format": "cell-based", "details": "Mus musculus, four doubling periods (48 hours)", "description": "A cell line, murine leukaemia L1210, was used. The cells are cultivated in a complete culture medium RPMI 1640, containing 10% foetal calf serum, 2 mM glutamine, 50 units/ml penicillin, […] streptomycin and 10 mM Hepes, pH: 7.4. The cells are distributed on microplates and exposed to the cytotoxic compounds for four doubling periods, that is 48 hours. The number of viable cells is then quantified by a colorimetric assay, the Microculture Tetrazolium Assay (J. Carmichael et al., Cancer Res., 47, 936-942, (1987)). The results are expressed as IC50, the concentration of cytotoxic agent that inhibits the proliferation of treated cells by 50%."}, "[2]": {"tested_on": "P388 (murine leukaemia)", "assay": "Anti-tumour activity in vivo against line P388", "design": "species or system murine; B6D2F1 mice", "source_text": "(§1) In this Example, the compounds were suspended in Tween 80, then diluted with water. The concentration of Tween is at a maximum of 1% at the strongest doses. The control animals received the carrier only.\nLine P388 (murine leukaemia) was supplied by the National Cancer Institute (Frederick, U.S.A.). The tumour cells (10^6 cells) were inoculated on day 0 into the peritoneal cavity of female B6D2F1 mice (Iffa-Credo, France). Eight to ten mice, of a weight ranging from 18 to 20 g, were used for each experimental group. The compounds were administered via the intraperitoneal route on day 1 or once a day for 4 days (D1-4), and by the intravenous route on day 1.\nThe anti-tumour activity is expressed as a T/C %: [formula]\nTable 2 indicates the anti-tumour activity achieved at the optimum doses for each scheme and administration route."}, "[3]": {"tested_on": "colon 38", "assay": "Anti-tumour activity in vivo against colon 38", "design": "species or system B6D2F1 mice", "details": "for median T/C % (tumour volume on D21): D2,9, i.p.", "description": "as §1\nColon 38 (supplied by NCI, Frederick, U.S.A.) was inserted in the form of fragments by the subcutaneous route (s.c.) into female B6D2F1 mice. The compounds were administered by the i.p. route on D2 and D9 and the anti-tumour activity was determined on D21 by measuring the rumour volume (T/C volume, %). [formula]"}, "[4]": {"assay": "Solubility", "format": "physicochemical", "details": "prevents i.v. testing"}, "[5]": {"details": "background statement; prevented i.v. administration; cited from earlier work"}, "[6]": {"details": "J. H. Scarffe et al.; cited from earlier work"}, "[7]": {"details": "cited from earlier work"}, "[8]": {"tested_on": "experimental models", "details": "especially against solid tumours, G. H. Svoboda et al.; cited from earlier work"}, "[9]": {"tested_on": "HT-29 tumour cells (human colon adenocarcinoma)", "assay": "HT-29 xenograft in hairless mice", "format": "in vivo, human tumour in hairless mice", "source_text": "as §1\nHT-29 tumour cells originating from a human colon adenocarcinoma (American Type Culture Collection, U.S.A.) are inoculated by the subcutaneous route into hairless female mice (Iffa Credo, France). The tumour is then amplified by successive passages of tumour fragments of 2-3 mm^3 implanted bilaterally by the subcutaneous route in the animals' flanks. […] The animals are weighed and their tumour is measured twice a week.\nThe tumour volume is calculated in accordance with the following formula: [formula]\nThe results are expressed as the median relative tumour volume: [formula]\nThe anti-tumour activity of the compound administered is evaluated by the minimum value of the median T/C calculated at time t: [formula]\nThe minimum value of this parameter is evaluated a minimum of 7 days after the last treatment in accordance with EORTC (European Organization for the […]) standards.\n(§2) The animals are treated by the i.p. route by weekly administration for 2 weeks of the compound of Example 1. D0 corresponds to the first time the tumours are measured and the first administration of compound."}, "[10]": {"assay": "Body weight change of hairless mice bearing HT-29 xenograft", "format": "in vivo", "details": "6.25 mg/kg, D0,7, i.p.", "source_text": "HT-29 tumour cells originating from a human colon adenocarcinoma (American Type Culture Collection, U.S.A.) are inoculated by the subcutaneous route into hairless female mice (Iffa Credo, France). The tumour is then amplified by successive passages of tumour fragments of 2-3 mm^3 implanted bilaterally by the subcutaneous route in the animals' flanks. When the tumour has reached a size of 50 mm^3 (that is between 7 and 10 days after the graft), the animals are randomised into groups of 7 to 10 mice and treated in accordance with the protocol indicated. The animals are weighed and their tumour is measured twice a week.\nas §2"}},
  "note": "pIC50: −log10 of the molar value. Read-outs that look alike come from different tables or passages of the source.",
  "data": [
    {"smiles": "COc1cc2c(c3c1c(=O)c1ccccc1n3C)[C@H]1OC(=O)O[C@H]1C(C)(C)O2", "note": "(relative stereo) [Example 7, (±)-cis-1,2-carbonyldioxy-1,2-dihydro-acronycine]", "values": [
      {"measurement": "pIC50", "setting": "[1]", "value": 6.70},
      {"measurement": "T/C % (survival)", "setting": "[2]; D1, i.p., optimum dose 50 mg/kg", "value": 269, "unit": "%"}
    ]},
    {"smiles": "COc1cc2c(c3c1c(=O)c1ccccc1n3C)[C@@H](O)[C@@H](OC(=O)c1ccccc1)C(C)(C)O2", "note": "(relative stereo) [Example 5, (±)-cis-2-benzoyloxy-1-hydroxy-1,2-dihydro-acronycine]", "values": [
      {"measurement": "pIC50", "setting": "[1]", "value": 5.15},
      {"measurement": "T/C % (survival)", "setting": "[2]; D1, i.p., optimum dose 12.5 mg/kg", "value": 258, "unit": "%"}
    ]},
    {"smiles": "COc1cc2c(c3c1c(=O)c1ccccc1n3C)[C@@H](OC(C)=O)[C@@H](OC(=O)c1ccccc1)C(C)(C)O2", "note": "(relative stereo) [Example 6, (±)-cis-1-acetoxy-2-benzoyloxy-1,2-dihydro-acronycine]", "values": [
      {"measurement": "pIC50", "setting": "[1]", "value": 5.30}
    ]},
    {"smiles": "COc1cc2c(c3c1c(=O)c1ccccc1n3C)C=CC(C)(C)O2", "note": "[acronycine]", "values": [
      {"measurement": "pIC50", "setting": "[1]", "value": 4.57},
      {"measurement": "T/C % (survival)", "setting": "[2]; D1, i.p., optimum dose 200 mg/kg", "value": 125, "unit": "%"},
      {"measurement": "T/C % (survival)", "setting": "[2]; D1-4, i.p., optimum dose 100 mg/kg", "value": 136, "unit": "%"},
      {"measurement": "activity against P388 (in words)", "setting": "[2]; i.p. route, at far stronger doses", "value": "weak activity"},
      {"measurement": "median T/C % (tumour volume on D21)", "setting": "[3]; 100 mg/kg", "value": 77, "unit": "%"},
      {"measurement": "median T/C % (tumour volume on D21)", "setting": "[3]; 200 mg/kg", "value": 61, "unit": "%"},
      {"measurement": "solubility (in words)", "setting": "[4]", "value": "completely insoluble"},
      {"measurement": "solubility (in words)", "setting": "[5]", "value": "insolubility"},
      {"measurement": "clinical response", "setting": "[6]", "value": "little response"},
      {"measurement": "oral bioavailability (in words)", "setting": "[7]", "value": "poor bioavailability"},
      {"measurement": "anti-tumour spectrum (in words)", "setting": "[8]", "value": "broad spectrum of activity"}
    ]},
    {"smiles": "O=c1[nH]cc(F)c(=O)[nH]1", "note": "[5-fluoro-uracil, reference compound]", "values": [
      {"measurement": "median T/C % (tumour volume on D21)", "setting": "[3]; 80 mg/kg", "value": 0, "unit": "%"}
    ]},
    {"smiles": "COc1cc2c(c3c1c(=O)c1ccccc1n3C)[C@H](OC(=O)c1ccccc1)[C@@H](OC(=O)c1ccccc1)C(C)(C)O2", "note": "(relative stereo) [Example 3, (±)-trans-1,2-dibenzoyloxy-1,2-dihydro-acronycine]", "values": [
      {"measurement": "pIC50", "setting": "[1]", "value": 5.47}
    ]},
    {"smiles": "COc1cc2c(c3c1c(=O)c1ccccc1n3C)[C@@H](OC(C)=O)[C@@H](OC(C)=O)C(C)(C)O2", "note": "(relative stereo) [Example 1, (±)-cis-1,2-diacetoxy-1,2-dihydro-acronycine]", "values": [
      {"measurement": "pIC50", "setting": "[1]", "value": 5.31},
      {"measurement": "T/C % (survival)", "setting": "[2]; D1, i.p., optimum dose 25 mg/kg", "value": 289, "unit": "%"},
      {"measurement": "T/C % (survival)", "setting": "[2]; D1, i.v., optimum dose 25 mg/kg", "value": 220, "unit": "%"},
      {"measurement": "T/C % (survival)", "setting": "[2]; D1-4, i.p., optimum dose 12.5 mg/kg", "value": 172, "unit": "%"},
      {"measurement": "activity against P388 (in words)", "setting": "[2]; i.p. and i.v. routes", "value": "extremely active"},
      {"measurement": "activity against colon 38 compared with 5-fluoro-uracil (in words)", "setting": "[3]; 25 mg/kg versus 5-fluoro-uracil at 80 mg/kg", "value": "as active at 25 mg/kg as 5-fluoro-uracil"},
      {"measurement": "median T/C % (tumour volume on D21)", "setting": "[3]; 6.25 mg/kg", "value": 12, "unit": "%"},
      {"measurement": "median T/C % (tumour volume on D21)", "setting": "[3]; 12.5 mg/kg", "value": 8, "unit": "%"},
      {"measurement": "median T/C % (tumour volume on D21)", "setting": "[3]; 25 mg/kg", "value": 1, "unit": "%"},
      {"measurement": "activity against colon 38 (in words)", "setting": "[3]; i.p.", "value": "very active"},
      {"measurement": "Minimum median T/C % (day)", "setting": "[9]; 6.25 mg/kg, D0,7, i.p., minimum at D32", "value": 46, "unit": "%"},
      {"measurement": "activity against HT-29 (in words)", "setting": "[9]; i.p., weekly for 2 weeks", "value": "active against that very resistant tumour"},
      {"measurement": "Δ weight (D10-D0)", "setting": "[10]", "value": -1.1, "unit": "g"}
    ]}
  ]
}
